# PubChem BioAssay (NCI)
#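 Protocol summary: plate cells (96-well), add compound at 5 concentrations, incubate 48 h, interpolate endpoints linearly. TGI: total growth inhibition.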
# What was measured:
# Test in all cases: growth of human tumour cells (NCI), 48 h
# RPMI-8226 leukemia = tested on: RPMI-8226 leukemia
# A498 renal = tested on: A498 renal
# HOP-18 NSCLC = tested on: HOP-18 NSCLC
# HOP-62 NSCLC = tested on: HOP-62 NSCLC
# MALME-3M melanoma = tested on: MALME-3M melanoma
# MOLT-4 leukemia = tested on: MOLT-4 leukemia
# DMS 114 small cell lung = tested on: DMS 114 small cell lung
# M19-MEL melanoma = tested on: M19-MEL melanoma
# DLD-1 colon = tested on: DLD-1 colon
# U251 CNS = tested on: U251 CNS
# OVCAR-3 ovarian = tested on: OVCAR-3 ovarian
# HOP-92 NSCLC = tested on: HOP-92 NSCLC
# SN12C renal = tested on: SN12C renal
# SK-MEL-2 melanoma = tested on: SK-MEL-2 melanoma
# COLO 205 colon = tested on: COLO 205 colon
# LOX IMVI melanoma = tested on: LOX IMVI melanoma
# SF-268 CNS = tested on: SF-268 CNS
# EKVX NSCLC = tested on: EKVX NSCLC
# K-562 leukemia = tested on: K-562 leukemia
# OVCAR-4 ovarian = tested on: OVCAR-4 ovarian
# RXF 393 renal = tested on: RXF 393 renal
# CAKI-1 renal = tested on: CAKI-1 renal
# SNB-75 CNS = tested on: SNB-75 CNS
# CCRF-CEM leukemia = tested on: CCRF-CEM leukemia
# SNB-78 CNS = tested on: SNB-78 CNS
# IGROV1 ovarian = tested on: IGROV1 ovarian
# KM20L2 colon = tested on: KM20L2 colon
# HCC-2998 colon = tested on: HCC-2998 colon
# HCT-116 colon = tested on: HCT-116 colon
# UACC-62 melanoma = tested on: UACC-62 melanoma
# NCI-H226 lung = tested on: NCI-H226 lung
# SK-MEL-28 melanoma = tested on: SK-MEL-28 melanoma
# 786-0 renal = tested on: 786-0 renal
# SF-539 CNS = tested on: SF-539 CNS
# SF-295 CNS = tested on: SF-295 CNS
# SW-620 colon = tested on: SW-620 colon
# KM12 colon = tested on: KM12 colon
# A549 NSCLC = tested on: A549 NSCLC
# UACC-257 melanoma = tested on: UACC-257 melanoma
# HCT-15 colon = tested on: HCT-15 colon
# SK-MEL-5 melanoma = tested on: SK-MEL-5 melanoma
# NCI-H522 lung = tested on: NCI-H522 lung
# M14 melanoma = tested on: M14 melanoma
# NCI-H23 lung = tested on: NCI-H23 lung
# UO-31 renal = tested on: UO-31 renal
# OVCAR-5 ovarian = tested on: OVCAR-5 ovarian
# TK-10 renal = tested on: TK-10 renal
# LXFL 529 NSCLC = tested on: LXFL 529 NSCLC
# HL-60(TB) leukemia = tested on: HL-60(TB) leukemia
# NCI-H460 lung = tested on: NCI-H460 lung
# OVCAR-8 ovarian = tested on: OVCAR-8 ovarian
# SK-OV-3 ovarian = tested on: SK-OV-3 ovarian
# ACHN renal = tested on: ACHN renal
# SNB-19 CNS = tested on: SNB-19 CNS
# XF 498 CNS = tested on: XF 498 CNS
smiles,measurement,setting,value
CCN(C(C)=N)c1ccccc1,TGI,RPMI-8226 leukemia,> 100 µM
same,TGI,A498 renal,> 100 µM
same,TGI,HOP-18 NSCLC,> 100 µM
same,TGI,HOP-62 NSCLC,> 100 µM
same,TGI,MALME-3M melanoma,> 100 µM
same,TGI,MOLT-4 leukemia,> 100 µM
same,TGI,DMS 114 small cell lung,> 100 µM
same,TGI,M19-MEL melanoma,> 100 µM
same,TGI,DLD-1 colon,> 100 µM
same,TGI,U251 CNS,> 100 µM
same,TGI,OVCAR-3 ovarian,> 100 µM
same,TGI,HOP-92 NSCLC,> 100 µM
same,TGI,SN12C renal,> 100 µM
same,TGI,SK-MEL-2 melanoma,> 100 µM
same,TGI,COLO 205 colon,> 100 µM
same,TGI,LOX IMVI melanoma,> 100 µM
same,TGI,SF-268 CNS,> 100 µM
same,TGI,EKVX NSCLC,> 100 µM
same,TGI,K-562 leukemia,> 100 µM
same,TGI,OVCAR-4 ovarian,> 100 µM
same,TGI,RXF 393 renal,> 100 µM
same,TGI,CAKI-1 renal,> 100 µM
same,TGI,SNB-75 CNS,> 100 µM
same,TGI,CCRF-CEM leukemia,> 100 µM
same,TGI,SNB-78 CNS,> 100 µM
same,TGI,IGROV1 ovarian,> 100 µM
same,TGI,KM20L2 colon,> 100 µM
same,TGI,HCC-2998 colon,> 100 µM
same,TGI,HCT-116 colon,> 100 µM
same,TGI,UACC-62 melanoma,> 100 µM
same,TGI,NCI-H226 lung,> 100 µM
same,TGI,SK-MEL-28 melanoma,> 100 µM
same,TGI,786-0 renal,> 100 µM
same,TGI,SF-539 CNS,> 100 µM
same,TGI,SF-295 CNS,> 100 µM
same,TGI,SW-620 colon,> 100 µM
same,TGI,KM12 colon,> 100 µM
same,TGI,A549 NSCLC,> 100 µM
same,TGI,UACC-257 melanoma,44.3 µM
same,TGI,HCT-15 colon,> 100 µM
same,TGI,SK-MEL-5 melanoma,> 100 µM
same,TGI,NCI-H522 lung,> 100 µM
same,TGI,M14 melanoma,> 100 µM
same,TGI,NCI-H23 lung,> 100 µM
same,TGI,UO-31 renal,> 100 µM
same,TGI,OVCAR-5 ovarian,> 100 µM
same,TGI,TK-10 renal,> 100 µM
same,TGI,LXFL 529 NSCLC,> 100 µM
same,TGI,HL-60(TB) leukemia,> 100 µM
same,TGI,NCI-H460 lung,> 100 µM
same,TGI,OVCAR-8 ovarian,> 100 µM
same,TGI,SK-OV-3 ovarian,> 100 µM
same,TGI,ACHN renal,> 100 µM
same,TGI,SNB-19 CNS,> 100 µM
same,TGI,XF 498 CNS,> 100 µM
